Measured values from ChEMBL document CHEMBL1201862, “PubChem BioAssay data set” (2004).
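Growth conditions: 96-well plates. Treatment: test compound, 48 hours, 5 concentrations. Analysis: linear interpolation between bracketing concentrations; unreached endpoints set to highest concentration. GI50: concentration for 50% inhibition of growth.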 The source made the active and inactive calls. Rule as the data show it: active = GI50 up to about 1.1 µM and inactive = higher.

Key:
Assay in all cases: NCI tumour cell line growth inhibition, 48 h
SNB-75 = test system: SNB-75
OVCAR-8 = test system: OVCAR-8
HOP-62 = test system: HOP-62
SN12C = test system: SN12C
SK-MEL-28 = test system: SK-MEL-28
SR = test system: SR
BT-549 = test system: BT-549
HCT-15 = test system: HCT-15
EKVX = test system: EKVX
HT-29 = test system: HT-29
HL-60 = test system: HL-60
ACHN = test system: ACHN
NCI-H226 = test system: NCI-H226
UO-31 = test system: UO-31
SNB-19 = test system: SNB-19
IGROV-1 = test system: IGROV-1
PC-3 = test system: PC-3
OVCAR-5 = test system: OVCAR-5
A498 = test system: A498

Row | SMILES | GI50 (SNB-75) | GI50 (OVCAR-8) | GI50 (HOP-62) | GI50 (SN12C) | GI50 (SK-MEL-28) | GI50 (SR) | GI50 (BT-549) | GI50 (HCT-15) [µM] | GI50 (EKVX) | GI50 (HT-29) | GI50 (HL-60) | GI50 (ACHN) | GI50 (NCI-H226) | GI50 (UO-31) | GI50 (SNB-19) | GI50 (IGROV-1) | GI50 (PC-3) | GI50 (OVCAR-5) | GI50 (A498)
1 | Cc1cccc2nc3n(c12)C(=O)c1ccccc1-3 | > 100 µM (inactive) | > 100 µM (inactive) | > 100 µM (inactive) | > 100 µM (inactive) | > 100 µM (inactive) | > 100 µM (inactive) | > 100 µM (inactive) | > 100 | 91.4 µM (inactive) | > 100 µM (inactive) | > 100 µM (inactive) | > 100 µM (inactive) | > 100 µM (inactive) | > 100 µM (inactive) | > 100 µM (inactive) | > 100 µM (inactive) | > 100 µM (inactive) | > 100 µM (inactive) | 
2 | CC(C)c1ccc2nc3ccc(C(=O)NCCN4CCN(c5ccccc5)CC4)cn3c(=O)c2c1 | 1.89 µM (inactive) | 4.33 µM (inactive) | 6.31 µM (inactive) |  | 2.82 µM (inactive) | 2.51 µM (inactive) | 6.3 µM (inactive) | 6.38 | > 100 µM (inactive) | 4.06 µM (inactive) |  |  | > 100 µM (inactive) | 4.9 µM (inactive) | > 100 µM (inactive) | > 100 µM (inactive) | 2.37 µM (inactive) | > 100 µM (inactive) | 29.9 µM (inactive)
3 | O=c1c2ccccc2nc(-c2cc3c(cc2Cl)Sc2nccn2S3(=O)=O)n1-c1ccccc1 | 21.4 µM (inactive) | 12.3 µM (inactive) | 18.2 µM (inactive) | 45.5 µM (inactive) | 21.4 µM (inactive) | 67.6 µM (inactive) | 41.1 µM (inactive) | 12.9 | 21.4 µM (inactive) | 40.5 µM (inactive) | 4.13 µM (inactive) | > 100 µM (inactive) | > 100 µM (inactive) | 16.6 µM (inactive) | 40.8 µM (inactive) | 42.6 µM (inactive) | 16.5 µM (inactive) | > 100 µM (inactive) | 
4 | Nn1c(=S)[nH]nc(/C=C/c2c(O)ccc3ccccc23)c1=O |  | 1.78 µM (inactive) | 11.6 µM (inactive) |  | 8.95 µM (inactive) | 4.67 µM (inactive) | 5.43 µM (inactive) | 3.13 | 2.75 µM (inactive) | 4.03 µM (inactive) | 0.203 µM (active) | 4.93 µM (inactive) |  | 6.35 µM (inactive) | 21.8 µM (inactive) | 1.64 µM (inactive) | 11.1 µM (inactive) | 7.08 µM (inactive) | 16.9 µM (inactive)
5 | CC(C)(C)c1ccc(C(C)(C)C)c(N2C(=O)[C@@H]3[C@@H]4C=C[C@@H](C4)[C@]3(C)C2=O)c1 |  | 14.6 µM (inactive) | 44 µM (inactive) | 20.1 µM (inactive) | 31.3 µM (inactive) | 5.2 µM (inactive) | 22.4 µM (inactive) | 18.6 | 47.3 µM (inactive) | 29.2 µM (inactive) | 16.4 µM (inactive) | 21.5 µM (inactive) | 26.9 µM (inactive) | 29.3 µM (inactive) | > 100 µM (inactive) | 18.6 µM (inactive) | 20.2 µM (inactive) | 86.5 µM (inactive) | 16.5 µM (inactive)
6 | COc1cc(C)cc(C(=O)OCc2ccccc2)c1C1=C(Cl)C(=O)C(Cl)=CC1=O | > 10 µM (inactive) | > 10 µM (inactive) | > 10 µM (inactive) | > 10 µM (inactive) | > 10 µM (inactive) | 4.13 µM (inactive) | > 10 µM (inactive) | > 10 | > 10 µM (inactive) | > 10 µM (inactive) | 1.86 µM (inactive) | > 10 µM (inactive) | > 10 µM (inactive) | 3.25 µM (inactive) | > 10 µM (inactive) | > 10 µM (inactive) | > 10 µM (inactive) | > 10 µM (inactive) | 
7 | CN(C)CCCN1c2ccccc2CCc2cc([N+](=O)[O-])ccc21 | 12.9 µM (inactive) | 15.7 µM (inactive) | 15.8 µM (inactive) | 16.1 µM (inactive) |  | 18.7 µM (inactive) | 16.6 µM (inactive) | 18.5 | 20.3 µM (inactive) | 15.3 µM (inactive) |  | 16.3 µM (inactive) | 17.5 µM (inactive) | 14.9 µM (inactive) | 16.9 µM (inactive) | 15.6 µM (inactive) | 16.7 µM (inactive) | 16.5 µM (inactive) | 12.8 µM (inactive)
8 | CCn1c(CCl)nc2c1C(=O)c1ccccc1C2=O | 1.58 µM (inactive) | 1.58 µM (inactive) | 2.42 µM (inactive) | 1.6 µM (inactive) | 1.76 µM (inactive) | 0.401 µM (active) | 2.18 µM (inactive) | 1.66 | 2.46 µM (inactive) | 1.78 µM (inactive) | 2.43 µM (inactive) | 3.72 µM (inactive) | 0.225 µM (active) |  | 1.87 µM (inactive) | 1.7 µM (inactive) | 1.91 µM (inactive) | 1.84 µM (inactive) | 
9 | O=C(OCc1ccccc1)N1CCCc2c(n(S(=O)(=O)c3ccccc3)c3ccccc23)C1 |  | > 100 µM (inactive) | > 100 µM (inactive) | > 100 µM (inactive) | > 100 µM (inactive) | 49.1 µM (inactive) | > 100 µM (inactive) | > 100 | > 100 µM (inactive) | > 100 µM (inactive) | > 100 µM (inactive) | > 100 µM (inactive) | > 100 µM (inactive) | > 100 µM (inactive) | > 100 µM (inactive) | > 100 µM (inactive) | > 100 µM (inactive) | > 100 µM (inactive) | > 100 µM (inactive)
10 | Cc1cc(NN)nc2[nH]nc(N)c12 | > 100 µM (inactive) | > 100 µM (inactive) | > 100 µM (inactive) | > 100 µM (inactive) | > 100 µM (inactive) | 69.5 µM (inactive) | > 100 µM (inactive) | > 100 | > 100 µM (inactive) | > 100 µM (inactive) |  | > 100 µM (inactive) | > 100 µM (inactive) | > 100 µM (inactive) | > 100 µM (inactive) | > 100 µM (inactive) | > 100 µM (inactive) | > 100 µM (inactive) | > 100 µM (inactive)
11 | CC1(C)OCC2OC3([C@@H]4OC(C)(C)O[C@H]4CO)OC(C)(C)OC3C2O1 (stereo not given in full) | > 100 µM (inactive) | > 100 µM (inactive) | > 100 µM (inactive) | > 100 µM (inactive) | > 100 µM (inactive) | > 100 µM (inactive) | > 100 µM (inactive) | > 100 | > 100 µM (inactive) |  |  | > 100 µM (inactive) | > 100 µM (inactive) | > 100 µM (inactive) | > 100 µM (inactive) | > 100 µM (inactive) | > 100 µM (inactive) | > 100 µM (inactive) | > 100 µM (inactive)
12 | c1ccc2c(C3CCN(CCN4CCOCC4)C3)c[nH]c2c1 (stereo not given) | > 100 µM (inactive) | > 100 µM (inactive) | > 100 µM (inactive) | > 100 µM (inactive) | > 100 µM (inactive) | > 100 µM (inactive) | > 100 µM (inactive) | > 100 | > 100 µM (inactive) | > 100 µM (inactive) | > 100 µM (inactive) | > 100 µM (inactive) |  | > 100 µM (inactive) | > 100 µM (inactive) | > 100 µM (inactive) | > 100 µM (inactive) | > 100 µM (inactive) | > 100 µM (inactive)
13 | COC(=O)[C@@]1(Cc2ccc(O)cc2)C[C@@H]2Cc3ccccc3N2N1 |  | 71.8 µM (inactive) | > 100 µM (inactive) | 71 µM (inactive) | > 100 µM (inactive) | 31.3 µM (inactive) | 45 µM (inactive) | 81.8 | 64.7 µM (inactive) | 35.5 µM (inactive) |  | > 100 µM (inactive) | 90.8 µM (inactive) | 75.7 µM (inactive) | > 100 µM (inactive) | 78 µM (inactive) | 34.5 µM (inactive) | > 100 µM (inactive) | 27.9 µM (inactive)
14 | CN1/C(=C\N=O)C(C)(C)N(O)C1(C)C | > 100 µM (inactive) | > 100 µM (inactive) | > 100 µM (inactive) | > 100 µM (inactive) | > 100 µM (inactive) | > 100 µM (inactive) | > 100 µM (inactive) | > 100 | > 100 µM (inactive) | > 100 µM (inactive) | > 100 µM (inactive) | > 100 µM (inactive) | > 100 µM (inactive) | > 100 µM (inactive) | > 100 µM (inactive) | > 100 µM (inactive) | > 100 µM (inactive) | > 100 µM (inactive) | 
15 | CC(C)C(C/C=C1\CC(CO)(COC(=O)c2ccccc2)OC1=O)C(C)C (stereo not given) | 15.3 µM (inactive) | 19.2 µM (inactive) | 13.7 µM (inactive) | 17.2 µM (inactive) | 16.3 µM (inactive) | 32.2 µM (inactive) | 21.7 µM (inactive) | 21.6 | 14.9 µM (inactive) | 19.1 µM (inactive) |  | 16.7 µM (inactive) | 19.8 µM (inactive) | 17.4 µM (inactive) | 17.9 µM (inactive) | 20.7 µM (inactive) | 15.8 µM (inactive) | 14.3 µM (inactive) | 21.3 µM (inactive)
16 | COc1cc2c(c(OC)c1)[C@H](C)N(Cc1ccccc1)C(C)C2 (stereo not given in full) | 41.1 µM (inactive) | 74.1 µM (inactive) | > 100 µM (inactive) | 35.2 µM (inactive) | 30.5 µM (inactive) | 25.8 µM (inactive) | 61.8 µM (inactive) | 28.6 | > 100 µM (inactive) | 9.57 µM (inactive) | 4.88 µM (inactive) | 31.3 µM (inactive) | 23.7 µM (inactive) | 54.2 µM (inactive) | > 100 µM (inactive) | 29.4 µM (inactive) | > 100 µM (inactive) |  | > 100 µM (inactive)
